Measurements taken from article PMC4893694, “Identification of potent maturation inhibitors against HIV-1 clade C” (Scientific Reports, 2016).

Tests used:
[1] = tested on: HIV-1 clade C K3016 virus; assay: Antiviral assay, spreading HIV-1 infection in HUT-R5 T-cell line (p24 reduction); assay type: cell-based; conditions: Human immunodeficiency virus 1, T-cell, 192 h; HUT-R5 cells infected with K3016, 8 days, HIV-1 p24 in supernatant; representative of two independent experiments
Method: HUT-R5 cells were infected with K3016 virus and cultured for eight days in the presence of serial dilutions of each compound. Antiviral activity was monitored by reduction in HIV-1 p24 levels in culture supernatants.
HUT-R5 cells were infected with normalized HIV-1 clade C K3016 virus stocks at 37 °C for 1 h. Cells were then maintained for 8 days in the presence of serial dilutions of MIs. After 8 days, the HIV-1 p24 concentration in the virus supernatants was measured to monitor virus replication.

[2] = Cytotoxicity assay (CellTitre-Blue) in HUT-R5; assay type: cell-based; conditions: human, HUT-R5 cells; HUT-R5, 4 days
Method: (§1) Cytotoxicity assays were performed using the CellTitre-Blue Cell Viability Assay kit (Promega, USA) as per manufacturer’s recommendations. HEK-293T and HUT-R5 cell lines were maintained in the presence of serial dilutions of MIs for 4 days and treated with CellTitre-Blue reagent for 4 h at 37 °C. The fluorescent signals were recorded at 530/25excitation and 590/35emission using BioTek microplate reader.

[3] = Cytotoxicity assay (CellTitre-Blue) in HEK-293T; assay type: cell-based; conditions: human, HEK-293T cells
Method: as §1

[4] = tested on: HIV-1 clade B molecular clone NL4-3 (CA-SP1 processing); conditions: HEK-293T transfected with NL4-3, increasing concentrations 0.1–5.0 μM, western blot
Method: (§2) Viral supernatants were pelleted and separated on SDS-PAGE followed by western blotting using HIV-IgG antibody.
(§3) 24 h post-transfection, the culture medium was replaced with fresh DMEM and incubated for another 2 h. MIs were maintained in the culture throughout transfection. […] The clarified supernatants were filtered (pore size 0.45 μm filter disc) to remove residual cellular contaminants. For determination of viral infectivity, the unconcentrated virus was used to infect TZM-bl cells.
(§4) To measure accumulation of CA-SP1, immunoblot analysis of virus-associated proteins was performed. The virus pellet was resuspended in radioimmunoprecipitation assay (RIPA) buffer (50 mM Tris-HCl pH 8.0, 150 mM sodium chloride, 1.0% NP-40, 0.5% sodium deoxycholate, 0.1% SDS) containing 1 × protease inhibitor cocktail (Roche, Germany). […] The proteins were visualized by enhanced chemiluminescence (Pierce, USA) and the bands were quantified using ImageJ software (http://imagej.nih.gov/ij/).

[5] = tested on: HIV-1 clade C molecular clone IndieC1 (CA-SP1 processing); conditions: HEK-293T transfected with IndieC1, increasing concentrations 0.1–5.0 μM, western blot
Method: as §2, §3, §4

[6] = tested on: HIV-1 clade C molecular clone ZM247 (CA-SP1 processing); conditions: HEK-293T transfected with ZM247, increasing concentrations 0.1–5.0 μM, western blot
Method: as §2, §3, §4

[7] = tested on: HIV-1 clade C molecular clone K3016 (CA-SP1 processing); assay type: cell-based; conditions: for activity (CA-SP1 accumulation): K3016, 10 nM; for accumulation of the CA-SP1 processing intermediate over a range of doses: K3016, 2–50 nM
Method: as §2, §3, §4

| SMILES | IC50 [1] [µM] | CC50 at 4 days [2] [µM] | CC50 at 4 days [3] [µM] | accumulation of p25 (CA-SP1) [4] | accumulation of p25 (CA-SP1) [5] | accumulation of p25 (CA-SP1) [6] | accumulation of p25 (CA-SP1) ([7]; HEK-293T transfected with K3016, increasing concentrations 0.1–5.0 μM, western blot) | activity (CA-SP1 accumulation) [7] [%] | accumulation of the CA-SP1 processing intermediate over a range of doses [7] |
| --- | --- | --- | --- | --- | --- | --- | --- | --- | --- |
| C=C(C)[C@@H]1CC[C@]2(C(=O)O)CC[C@]3(C)[C@H](CC[C@@H]4[C@@]5(C)CC[C@H](OC(=O)CC(C)(C)C(=O)O)C(C)(C)[C@@H]5CC[C@]43C)[C@@H]12 [BVM, 3-0-(3′-3′-dimethylsuccinyl) betulinic acid, reference compound] | > 1 | > 1 | > 5 | dose-dependent accumulation of p25 | resistant | resistant | resistant |  |  |
| C=C(C)C1CCC2(CCNCCCN3CCCC3)CCC3(C)C(CCC4C5(C)CCC(OC(=O)CC(C)(C)CC(=O)O)C(C)(C)C5CCC43C)C12 (stereo not shown) [Compound 7h] | 0.0113 | > 1 | > 1 |  |  |  |  |  |  |
| C=C(C)C1CCC2(CCNC3CCN(C)CC3)CCC3(C)C(CCC4C5(C)CCC(OC(=O)CC(C)(C)CC(=O)O)C(C)(C)C5CCC43C)C12 (stereo not shown) [Compound 7j] | 0.0059 | > 1 | > 1 |  |  |  |  |  |  |
| C=C(C)C1CCC2(CCNCCN(C)C)CCC3(C)C(CCC4C5(C)CCC(OC(=O)CC(C)(C)CC(=O)O)C(C)(C)C5CCC43C)C12 (stereo not shown) [Compound 7m] | 0.0014 | > 1 | > 1 |  |  |  |  | ~40 | dose-dependent accumulation |
| C=C(C)C1CCC2(CCNC3CCN(CC)CC3)CCC3(C)C(CCC4C5(C)CCC(OC(=O)CC(C)(C)CC(=O)O)C(C)(C)C5CCC43C)C12 (stereo not shown) [Compound 7r] | 0.0015 | > 1 | > 1 |  |  |  |  | ~40 | dose-dependent accumulation |
| C=C(C)C1CCC2(CCNC3CCN(CCO)CC3)CCC3(C)C(CCC4C5(C)CCC(OC(=O)CC(C)(C)CC(=O)O)C(C)(C)C5CCC43C)C12 (stereo not shown) [Compound 7s] | 0.0013 | > 1 | > 1 |  |  |  |  | ~40 | dose-dependent accumulation |
